Measurements published in EP1561465A2, “Methods of use of fluoroquinolone compounds against bacteria” (LG Life Sciences, Ltd., priority 1999, dated 2001).
≈ marks a conversion by molar mass, not a printed value.

Tests used:
Assay type in all cases: cell-based
Campylobacter jejuni = assay: MIC by agar dilution (NCCLS M7-A4), 5% sheep blood, microaerophilic 48 h; conditions: Campylobacter jejuni (n=91)
Haemophilus influenzae = assay: MIC by agar dilution (NCCLS), 411 isolates Buenos Aires 1998-99; conditions: Haemophilus influenzae (n = 65)
Moraxella catarrhalis [1] = assay: as above; conditions: Moraxella catarrhalis (n = 59)
Streptococcus pneumoniae [2] = assay: MIC by NCCLS reference broth microdilution, 450 respiratory tract pathogens; conditions: for MIC / MIC50 / MIC90: Streptococcus pneumoniae
Moraxella catarrhalis [3] = assay: as above
Moraxella catarrhalis [4] = assay: MIC by two-fold serial agar dilution, Sensitivity Disk agar-N (Kitasato isolates); conditions: Moraxella catarrhalis (22)
Streptococcus pneumoniae [5] = assay: as above; conditions: for MIC90 / MIC / MIC50: Streptococcus pneumoniae; for MIC90: read-out: MIC90; for MIC: read-out: MIC Range; for MIC50: read-out: MIC50
Enterococcus faecium = assay: MIC by NCCLS broth microdilution, 1100 Japanese clinical isolates 1997-1998; conditions: for MIC: Enterococcus faecium, Enterococcus faecium (vanA) vancomycin resistant
[6] = Streptococcus pneumoniae (n = 100)
[7] = erythromycin resistant M phenotype (n = 16)
[8] = penicillin intermediate (n = 16)
[9] = penicillin susceptible (n = 20)

CO/N=C1\CN(c2nc3c(cc2F)c(=O)c(C(=O)O)cn3C2CC2)CC1CN (racemic) [Gemifloxacin, (R,S)-7-(3-aminomethyl-4-methoxyiminopyrrolidin-1-yl)-1-cyclopropyl-6-fluoro-4-oxo-1,4-dihydro-1,8-naphthyridine-3-carboxylic acid]
% Susceptible (Campylobacter jejuni): 31.86% | MIC50 (Campylobacter jejuni): 32 µg/mL (≈ 82.2 µM) | MIC90 (Campylobacter jejuni): 128 µg/mL (≈ 329 µM) | MIC Range (Campylobacter jejuni): 0.03 to 128 µg/mL | MIC90 (Haemophilus influenzae): 0.008 µg/mL (≈ 0.0205 µM) | MIC Range (Haemophilus influenzae): ≤0.004 to 0.125 µg/mL | MIC Range (Moraxella catarrhalis [1]): ≤0.004 to 0.016 µg/mL | MIC90 (Moraxella catarrhalis [1]; read-out: MIC90): 0.008 µg/mL (≈ 0.0205 µM) | times more potent than all comparator agents (Streptococcus pneumoniae [2]; S. pneumoniae): 4-64 times | MIC (Streptococcus pneumoniae [2]; [6]): 0.0075 to 0.03 µg/mL (≈ 0.0193 to 0.077 µM) | MIC50 (Streptococcus pneumoniae [2]; [6]): 0.015 µg/mL (≈ 0.0385 µM) | MIC90 (Streptococcus pneumoniae [2]; [6]): 0.03 µg/mL (≈ 0.077 µM) | MIC (Streptococcus pneumoniae [2]; [7]): 0.015 to 0.05 µg/mL (≈ 0.0385 to 0.128 µM) | MIC50 (Streptococcus pneumoniae [2]; [7]): 0.015 µg/mL (≈ 0.0385 µM) | MIC90 (Streptococcus pneumoniae [2]; [7]): 0.03 µg/mL (≈ 0.077 µM) | MIC (Streptococcus pneumoniae [2]; erythromycin resistant MLSB phenotype (n = 16)): 0.0075 to 0.03 µg/mL (≈ 0.0193 to 0.077 µM) | MIC (Streptococcus pneumoniae [2]; multi-drug resistant (n = 16)): 0.0075 to 0.03 µg/mL (≈ 0.0193 to 0.077 µM) | MIC50 (Streptococcus pneumoniae [2]; multi-drug resistant (n = 16)): 0.015 µg/mL (≈ 0.0385 µM) | MIC90 (Streptococcus pneumoniae [2]; multi-drug resistant (n = 16)): 0.03 µg/mL (≈ 0.077 µM) | MIC (Streptococcus pneumoniae [2]; [8]): 0.0075 to 0.03 µg/mL (≈ 0.0193 to 0.077 µM) | MIC50 (Streptococcus pneumoniae [2]; [8]): 0.015 µg/mL (≈ 0.0385 µM) | MIC90 (Streptococcus pneumoniae [2]; [8]): 0.015 µg/mL (≈ 0.0385 µM) | MIC (Streptococcus pneumoniae [2]; penicillin resistant (n = 18)): 0.0075 to 0.06 µg/mL (≈ 0.0193 to 0.154 µM) | MIC50 (Streptococcus pneumoniae [2]; penicillin resistant (n = 18)): ≤ 0.0075 µg/mL | MIC90 (Streptococcus pneumoniae [2]; penicillin resistant (n = 18)): 0.06 µg/mL (≈ 0.154 µM) | MIC (Streptococcus pneumoniae [2]; [9]): 0.0075 to 0.03 µg/mL (≈ 0.0193 to 0.077 µM) | MIC50 (Streptococcus pneumoniae [2]; [9]): 0.015 µg/mL (≈ 0.0385 µM) | MIC90 (Streptococcus pneumoniae [2]; [9]): 0.03 µg/mL (≈ 0.077 µM) | MIC (Moraxella catarrhalis [3]; Moraxella catarrhalis (n = 50)): 0.00375 to 0.03 µg/mL (≈ 0.00963 to 0.077 µM) | MIC50 (Moraxella catarrhalis [3]; Moraxella catarrhalis (n = 50)): 0.015 µg/mL (≈ 0.0385 µM) | MIC90 (Moraxella catarrhalis [3]; Moraxella catarrhalis (n = 50)): 0.015 µg/mL (≈ 0.0385 µM) | MIC (Moraxella catarrhalis [3]; β-lactamase negative (n = 13)): 0.00375 to 0.015 µg/mL (≈ 0.00963 to 0.0385 µM) | MIC50 (Moraxella catarrhalis [3]; β-lactamase negative (n = 13)): 0.015 µg/mL (≈ 0.0385 µM) | MIC90 (Moraxella catarrhalis [3]; β-lactamase negative (n = 13)): 0.015 µg/mL (≈ 0.0385 µM) | MIC (Moraxella catarrhalis [3]; β-lactamase positive (n = 37)): 0.00375 to 0.03 µg/mL (≈ 0.00963 to 0.077 µM) | MIC50 (Moraxella catarrhalis [3]; β-lactamase positive (n = 37)): 0.015 µg/mL (≈ 0.0385 µM) | MIC90 (Moraxella catarrhalis [3]; β-lactamase positive (n = 37)): 0.015 µg/mL (≈ 0.0385 µM) | MIC50 (Moraxella catarrhalis [4]): 0.031 µg/mL (≈ 0.0796 µM) | MIC90 (Moraxella catarrhalis [4]): 0.031 µg/mL (≈ 0.0796 µM) | MIC Range (Moraxella catarrhalis [4]): 0.016 to 0.031 µg/mL | more potent than sparfloxacin (Streptococcus pneumoniae [5]; S. pneumoniae, by MIC90): 8 fold | more potent than trovafloxacin (Streptococcus pneumoniae [5]; S. pneumoniae, by MIC90): 4 fold | MIC90 (Streptococcus pneumoniae [5]; 18 h, Ciprofloxacin-resistant (21), ciprofloxacin MIC ≥8 µg/ml): 0.5 µg/mL (≈ 1.28 µM) | MIC (Streptococcus pneumoniae [5]; 18 h, Ciprofloxacin-resistant (21)): 0.063 to 0.5 µg/mL (≈ 0.162 to 1.28 µM) | MIC (Streptococcus pneumoniae [5]; 18 h, Ciprofloxacin-susceptible (94)): 0.008 to 0.063 µg/mL (≈ 0.0205 to 0.162 µM) | MIC (Streptococcus pneumoniae [5]; 18 h, Erythromycin-resistant (37)): 0.016 to 0.5 µg/mL (≈ 0.0411 to 1.28 µM) | MIC (Streptococcus pneumoniae [5]; 18 h, Minocycline-resistant (37)): 0.016 to 0.5 µg/mL (≈ 0.0411 to 1.28 µM) | MIC (Streptococcus pneumoniae [5]; 18 h, Penicillin-resistant (19)): 0.016 to 0.063 µg/mL (≈ 0.0411 to 0.162 µM) | MIC50 (Streptococcus pneumoniae [5]; Ciprofloxacin-resistant (21)): 0.25 µg/mL (≈ 0.642 µM) | MIC50 (Streptococcus pneumoniae [5]; Ciprofloxacin-susceptible (94)): 0.031 µg/mL (≈ 0.0796 µM) | MIC90 (Streptococcus pneumoniae [5]; Ciprofloxacin-susceptible (94)): 0.031 µg/mL (≈ 0.0796 µM) | MIC50 (Streptococcus pneumoniae [5]; Erythromycin-resistant (37)): 0.031 µg/mL (≈ 0.0796 µM) | MIC90 (Streptococcus pneumoniae [5]; Erythromycin-resistant (37)): 0.063 µg/mL (≈ 0.162 µM) | MIC50 (Streptococcus pneumoniae [5]; Minocycline-resistant (37)): 0.031 µg/mL (≈ 0.0796 µM) | MIC90 (Streptococcus pneumoniae [5]; Minocycline-resistant (37)): 0.063 µg/mL (≈ 0.162 µM) | MIC50 (Streptococcus pneumoniae [5]; Penicillin-resistant (19)): 0.016 µg/mL (≈ 0.0411 µM) | MIC90 (Streptococcus pneumoniae [5]; Penicillin-resistant (19)): 0.063 µg/mL (≈ 0.162 µM) | MIC50 (Enterococcus faecium; Enterococcus faecium (n=39)): 16 µg/mL (≈ 41.1 µM) | MIC90 (Enterococcus faecium; Enterococcus faecium (n=39)): 64 µg/mL (≈ 164 µM) | MIC Range (Enterococcus faecium; Enterococcus faecium (n=39)): 0.063 to 64 µg/mL | MIC (Enterococcus faecium; strain TMS1): 16 µg/mL (≈ 41.1 µM) | MIC (Enterococcus faecium; strain TMS2): 2 µg/mL (≈ 5.14 µM) | MIC (Enterococcus faecium; strain TMS3): 4 µg/mL (≈ 10.3 µM)
